Source: patent publication US8309765B2, “Process for manufacture of high purity D-(−)-N,N-diethyl-2-(α-naphthoxy) propionamide” (United Phosphorus Limited, priority 2007, dated 2012)
Values after ≈ are worked out from the molar mass of the structure shown.

Tests used:
[1] = water solubility; format: physicochemical
[2] = stability in the presence of UV radiation; format: physicochemical
[3] = test system: certain weeds; conditions: cited from earlier work

Row | Structure (SMILES) | solubility ([1]; water, at 20° C.) [µg/mL] | stability in the presence of UV radiation / UV light, colour change [2] | water solubility [1] [mg/1 ltr] | activity relative to the (L)-isomer ([3]; (D)-isomer vs (L)-isomer) [times] | activity relative to the racemic mixture ([3]; (D)-isomer vs racemic mixture)
1 | CCN(CC)C(=O)C(C)Oc1cccc2ccccc12 (racemic) [Racemic form of -(−)-N,N-diethyl-2-(α-naphthoxy)propionamide, N,N-diethyl-2-(α-naphthoxy)propionamide, reference compound] | 73 (≈ 269 µM) | decomposes in the presence of UV radiation with colour change | – | – | –
2 | CCN(CC)C(=O)[C@@H](C)Oc1cccc2ccccc12 [D-(−)-N,N-diethyl-2-(α-naphthoxy)propionamide] | – | stable in the presence of UV light | 50 | 8 | 1.7-2 times
